molecular target: T1, human IBAT (Homo sapiens, UniProt Q12908); experiment: In vitro assay using Cos 7 cells, transiently expressed human IBAT; assay type: cell-based; conditions: [3H]-taurocholate 8 μM uptake, 37° C., 60 minutes
T1 sequence (Q12908 1-348): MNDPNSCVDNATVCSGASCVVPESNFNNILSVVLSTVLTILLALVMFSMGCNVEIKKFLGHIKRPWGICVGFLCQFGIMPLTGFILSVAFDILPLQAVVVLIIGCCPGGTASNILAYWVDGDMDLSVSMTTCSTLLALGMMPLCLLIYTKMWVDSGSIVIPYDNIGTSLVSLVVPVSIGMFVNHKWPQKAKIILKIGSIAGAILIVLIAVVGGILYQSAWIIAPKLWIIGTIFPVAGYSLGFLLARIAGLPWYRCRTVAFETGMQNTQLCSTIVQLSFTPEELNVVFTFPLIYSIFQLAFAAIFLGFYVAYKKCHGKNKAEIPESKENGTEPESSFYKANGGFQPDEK
Experimental: In the present Test Example, an in vitro assay of compounds using Cos 7 cells as to inhibitory activity on transiently expressed human IBAT or rat IBAT transporter was performed according to the method described in Am. J. Physiol., 274, G157-169.
That is, […] cells/well of Cos 7 cells were seeded in a 24-well plate, and after one day, the cells were transfected with 0.3 μg/well of cDNA of human IBAT or rat IBAT using FuGENE6 (supplied from Roche). After culturing for one day after the transfection, the cells were washed once with the assay buffer, i.e., Hanks buffer containing 25 mM glucose and 10 mM HEPES (pH 7.4). The assay buffer was then replaced with the assay buffer containing the test compound. [^3H]-Taurocholate at a final concentration of 8 μM was added thereto and incubated at 37° C. for 60 minutes so that [^3H]-taurocholate was taken into Cos 7 cells by the action of human IBAT or rat IBAT. The cells were washed twice with the assay buffer containing 1 mM taurocholate, and subsequently lysed with 0.2 M NaOH to stop the reaction. The cell lysate was added to 4 mL of liquid scintillation cocktail, which was then thoroughly vortexed. Then the radioactivity was measured using the liquid scintillation counter.

Row | Compound | IC50
1 | CCCCC1(CCCC)CS(=O)(=O)c2ccc(N(C)C)cc2C(c2cccc(NC(=S)Nc3ccc(C[N+](C)(CCC)CCC)cc3)c2)N1 (racemic) [EXAMPLE 3426] | 58 nM
2 | CCCCC1(CCCC)CS(=O)(=O)c2ccc(N(C)C)cc2C(c2cccc(NC(=S)Nc3ccc(C[N+](C)(C)Cc4cccs4)cc3)c2)N1 (racemic) [EXAMPLE 3449] | 55 nM
3 | CCCCC1(CCCC)CS(=O)(=O)c2ccc(N(C)C)cc2C(c2cccc(NC(=S)Nc3ccc(C[N+](C)(C)CC(C)O)cc3)c2)N1 (racemic) [EXAMPLE 3454] | 68 nM
4 | CCCCC1(CCCC)CS(=O)(=O)c2ccc(N(C)C)cc2C(c2cccc(NC(=S)Nc3ccc(C[N+](C)(C)CCN(C)C)cc3)c2)N1 (racemic) [EXAMPLE 3506] | 127 nM
5 | CCCCC1(CCCC)CS(=O)(=O)c2ccc(N(C)C)cc2C(c2cccc(NC(=S)Nc3ccc(C[N+]4(C)CCCCC4)cc3)c2)N1 (racemic) [EXAMPLE 3587] | 70 nM
6 | CCCCC1(CCCC)CS(=O)(=O)c2ccc(N(C)C)cc2C(c2cccc(NC(=S)Nc3ccc(C[N+]45CCC(CC4)C(O)C5)cc3)c2)N1 (racemic) [EXAMPLE 3697] | 69 nM
7 | CCCCC1(CCCC)CS(=O)(=O)c2ccc(N(C)C)cc2C(c2cccc(NC(=S)Nc3ccc(C[n+]4ccccc4)cc3)c2)N1 (racemic) [EXAMPLE 3708] | 70 nM
8 | CCCCC1(CCCC)CS(=O)(=O)c2ccc(N(C)C)cc2C(c2cccc(NC(=S)Nc3ccc(C[n+]4cccc(CC)c4)cc3)c2)N1 (racemic) [EXAMPLE 3722] | 39 nM
9 | CCCCC1(CCCC)CS(=O)(=O)c2ccc(N(C)C)cc2C(c2cccc(NC(=S)Nc3ccc(C[n+]4cccc(-c5cccs5)c4)cc3)c2)N1 (racemic) [EXAMPLE 3726] | 73 nM
10 | CCCCC1(CCCC)CS(=O)(=O)c2ccc(N(C)C)cc2C(c2cccc(NC(=S)Nc3ccc(C[n+]4cc(C)cc(-c5ccccc5)c4)cc3)c2)N1 (racemic) [EXAMPLE 3730] | 84 nM
11 | CCCCC1(CCCC)CS(=O)(=O)c2ccc(N(C)C)cc2C(c2cccc(NC(=S)Nc3ccc(C[n+]4cccc(C(=O)c5ccccc5)c4)cc3)c2)N1 (racemic) [EXAMPLE 3748] | 81 nM
12 | CCCCC1(CCCC)CS(=O)(=O)c2ccc(N(C)C)cc2C(c2cccc(NC(=S)Nc3ccc(C[n+]4ccc(NC=O)cc4)cc3)c2)N1 (racemic) [EXAMPLE 3754] | 92 nM
13 | CCCCC1(CCCC)CS(=O)(=O)c2ccc(N(C)C)cc2C(c2cccc(NC(=S)Nc3ccc(C[n+]4ccc(CCc5ccncc5)cc4)cc3)c2)N1 (racemic) [EXAMPLE 3764] | 80 nM
14 | CCCCC1(CCCC)CS(=O)(=O)c2ccc(N(C)C)cc2C(c2cccc(NC(=S)Nc3ccc(C[n+]4ccc(N(C)C)cc4)cc3)c2)N1 (racemic) [EXAMPLE 4210] | 100 nM
15 | CCCCC1(CCCC)CS(=O)(=O)c2ccc(N(C)C)cc2C(c2cccc(NC(=S)Nc3ccc(C[n+]4ccc(C(C)O)cc4)cc3)c2)N1 (racemic) [EXAMPLE 5411] | 97 nM
16 | CCCCC1(CCCC)CS(=O)(=O)c2ccc(N(C)C)cc2C(c2cccc(NC(=S)Nc3ccc(C[n+]4cc(O)cc(Cl)c4)cc3)c2)N1 (racemic) [EXAMPLE 5417] | 26 nM
17 | CCCCC1(CCCC)CS(=O)(=O)c2ccc(N(C)C)cc2C(c2cccc(NC(=S)NCCC[N+]3(Cc4ccccc4)CCCC(CO)C3)c2)N1 (centres unmarked) [EXAMPLE 592] | 100 nM
18 | CCCCC1(CCCC)CS(=O)(=O)c2ccc(N(C)C)cc2C(c2cccc(NC(=S)NCCC[N+]3(Cc4ccccc4)CCC(CCO)CC3)c2)N1 (centres unmarked) [EXAMPLE 593] | 92 nM
19 | CCCCCC[N+](C)(C)Cc1ccc(NC(=S)Nc2cccc(C3NC(CCCC)(CCCC)CS(=O)(=O)c4ccc(N(C)C)cc43)c2)cc1 (centres unmarked) [EXAMPLE 3410] | 68 nM
20 | CCCCCCCC[N+](C)(C)Cc1ccc(NC(=S)Nc2cccc(C3NC(CCCC)(CCCC)CS(=O)(=O)c4ccc(N(C)C)cc43)c2)cc1 (centres unmarked) [EXAMPLE 3412] | 75 nM
21 | CCCCCCCCC[N+](C)(C)Cc1ccc(NC(=S)Nc2cccc(C3NC(CCCC)(CCCC)CS(=O)(=O)c4ccc(N(C)C)cc43)c2)cc1 (centres unmarked) [EXAMPLE 3413] | 73 nM
22 | CCCCCCCCCC[N+](C)(C)Cc1ccc(NC(=S)Nc2cccc(C3NC(CCCC)(CCCC)CS(=O)(=O)c4ccc(N(C)C)cc43)c2)cc1 (centres unmarked) [EXAMPLE 3414] | 88 nM
23 | C=CC[N+](C)(C)Cc1ccc(NC(=S)Nc2cccc(C3NC(CCCC)(CCCC)CS(=O)(=O)c4ccc(N(C)C)cc43)c2)cc1 (centres unmarked) [EXAMPLE 3429] | 55 nM

Row | Compound | IC50
24 | C#CC[N+](C)(C)Cc1ccc(NC(=S)Nc2cccc(C3NC(CCCC)(CCCC)CS(=O)(=O)c4ccc(N(C)C)cc43)c2)cc1 (centres unmarked) [EXAMPLE 3433] | 55 nM
25 | CCC#CC[N+](C)(C)Cc1ccc(NC(=S)Nc2cccc(C3NC(CCCC)(CCCC)CS(=O)(=O)c4ccc(N(C)C)cc43)c2)cc1 (centres unmarked) [EXAMPLE 3434] | 71 nM
26 | CCCCC1(CCCC)CS(=O)(=O)c2ccc(N(C)C)cc2C(c2cccc(NC(=S)Nc3ccc(C[N+](C)(C)C(C)c4ccccc4)cc3)c2)N1 (centres unmarked) [EXAMPLE 3441] | 85 nM
27 | CCCCC1(CCCC)CS(=O)(=O)c2ccc(N(C)C)cc2C(c2cccc(NC(=S)Nc3ccc(C[N+](C)(C)CCOC(=O)c4ccccc4)cc3)c2)N1 (centres unmarked) [EXAMPLE 3558] | 70 nM
28 | CCCCC1(CCCC)CS(=O)(=O)c2ccc(N(C)C)cc2C(c2cccc(NC(=S)Nc3ccc(C[N+]4(CC)CCCC4)cc3)c2)N1 (centres unmarked) [EXAMPLE 3568] | 94 nM
29 | CCCCC1(CCCC)CS(=O)(=O)c2ccc(N(C)C)cc2C(c2cccc(NC(=S)Nc3ccc(C[N+]4(Cc5ccccc5)CCCCC4)cc3)c2)N1 (centres unmarked) [EXAMPLE 3593] | 70 nM
30 | CCCCC1(CCCC)CS(=O)(=O)c2ccc(N(C)C)cc2C(c2cccc(NC(=S)Nc3ccc(C[N+]4(C)CCC(O)CC4)cc3)c2)N1 (centres unmarked) [EXAMPLE 3599] | 54 nM
31 | CCCCC1(CCCC)CS(=O)(=O)c2ccc(N(C)C)cc2C(c2cccc(NC(=S)Nc3ccc(C[N+]4(Cc5ccccc5)CCCC(O)C4)cc3)c2)N1 (centres unmarked) [EXAMPLE 3604] | 45 nM
32 | CCCCC1(CCCC)CS(=O)(=O)c2ccc(N(C)C)cc2C(c2cccc(NC(=S)Nc3ccc(C[N+]45CCC(CC4)C(=O)C5)cc3)c2)N1 (centres unmarked) [EXAMPLE 3698] | 72 nM
33 | CCCCC1(CCCC)CS(=O)(=O)c2ccc(N(C)C)cc2C(c2cccc(NC(=S)Nc3ccc(C[n+]4ccc(CCC)cc4)cc3)c2)N1 (centres unmarked) [EXAMPLE 3711] | 63 nM
34 | CCCCC1(CCCC)CS(=O)(=O)c2ccc(N(C)C)cc2C(c2cccc(NC(=S)Nc3ccc(C[n+]4ccc(C(CC)CC)cc4)cc3)c2)N1 (centres unmarked) [EXAMPLE 3714] | 58 nM
35 | CCCCC(CCCC)c1cc[n+](Cc2ccc(NC(=S)Nc3cccc(C4NC(CCCC)(CCCC)CS(=O)(=O)c5ccc(N(C)C)cc54)c3)cc2)cc1 (centres unmarked) [EXAMPLE 3716] | 89 nM
36 | CCCCC1(CCCC)CS(=O)(=O)c2ccc(N(C)C)cc2C(c2cccc(NC(=S)Nc3ccc(C[n+]4ccc(-c5ccccc5)cc4)cc3)c2)N1 (centres unmarked) [EXAMPLE 3717] | 30 nM
37 | CCCCC1(CCCC)CS(=O)(=O)c2ccc(N(C)C)cc2C(c2cccc(NC(=S)Nc3ccc(C[n+]4cccc(-c5ccccc5)c4)cc3)c2)N1 (centres unmarked) [EXAMPLE 3724] | 69 nM
38 | CCCCC1(CCCC)CS(=O)(=O)c2ccc(N(C)C)cc2C(c2cccc(NC(=S)Nc3ccc(C[n+]4cccc(Cc5ccccc5)c4)cc3)c2)N1 (centres unmarked) [EXAMPLE 3725] | 52 nM
39 | CCCCC1(CCCC)CS(=O)(=O)c2ccc(N(C)C)cc2C(c2cccc(NC(=S)Nc3ccc(C[n+]4ccc(C)c(C)c4)cc3)c2)N1 (centres unmarked) [EXAMPLE 3727] | 66 nM
40 | CCCCC1(CCCC)CS(=O)(=O)c2ccc(N(C)C)cc2C(c2cccc(NC(=S)Nc3ccc(C[n+]4cc(C)cc(C)c4)cc3)c2)N1 (centres unmarked) [EXAMPLE 3729] | 88 nM
41 | CCCCC1(CCCC)CS(=O)(=O)c2ccc(N(C)C)cc2C(c2cccc(NC(=S)Nc3ccc(C[n+]4ccc(CCCO)cc4)cc3)c2)N1 (centres unmarked) [EXAMPLE 3733] | 57 nM
42 | CCCCC1(CCCC)CS(=O)(=O)c2ccc(N(C)C)cc2C(c2cccc(NC(=S)Nc3ccc(C[n+]4ccc(C(C)=O)cc4)cc3)c2)N1 (centres unmarked) [EXAMPLE 3736] | 50 nM
43 | CCCCCCOC(=O)c1ccc[n+](Cc2ccc(NC(=S)Nc3cccc(C4NC(CCCC)(CCCC)CS(=O)(=O)c5ccc(N(C)C)cc54)c3)cc2)c1 (centres unmarked) [EXAMPLE 3750] | 75 nM
44 | CCCCC1(CCCC)CS(=O)(=O)c2ccc(N(C)C)cc2C(c2cccc(NC(=S)CCCCC[N+]34CCC(CC3)C(O)C4)c2)N1 (centres unmarked) [EXAMPLE 3854] | 28 nM
45 | CCCCC1(CCCC)CS(=O)(=O)c2ccc(N(C)C)cc2C(c2cccc(NC(=S)Nc3ccc(C[n+]4ccccc4C)cc3)c2)N1 (centres unmarked) [EXAMPLE 5407] | 52 nM
46 | CCCCC1(CCCC)CS(=O)(=O)c2ccc(N(C)C)cc2C(c2cccc(NC(=S)Nc3ccc(C[n+]4c(C)cc(C)cc4C)cc3)c2)N1 (centres unmarked) [EXAMPLE 5409] | 42 nM

same assay, conditions: [3H]-taurocholate 8 μM, 37° C., 60 minutes

Row | Compound | IC50
47 | CCCCC1(CCCC)CS(=O)(=O)c2ccc(N(C)C)cc2C(c2cccc(NC(=S)Nc3ccc(C[n+]4ccccc4OCC)cc3)c2)N1 (racemic) [EXAMPLE 5415] | 44 nM

Source: patent US20120015925A1, “NOVEL BENZOTHIAZEPINE AND BENZOTHIEPINE COMPOUNDS” (ASAHI KASEI PHARMA CORPORATION, priority 2004, published 2012)
